The target in one series is T1, lysyl oxidase (Bos taurus, UniProt P33072).
T1 construct: The enzyme was isolated from bovine aortas; from tissue; host or cells: bovine aorta
T1 sequence (P33072 170-418): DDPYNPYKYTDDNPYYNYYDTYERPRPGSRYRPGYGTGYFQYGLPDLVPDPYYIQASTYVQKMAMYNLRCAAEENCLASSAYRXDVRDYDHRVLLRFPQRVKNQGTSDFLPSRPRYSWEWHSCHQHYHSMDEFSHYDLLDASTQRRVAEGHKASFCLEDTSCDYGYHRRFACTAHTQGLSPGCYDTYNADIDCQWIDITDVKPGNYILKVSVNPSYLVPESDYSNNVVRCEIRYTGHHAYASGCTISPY
The experiment in a line: Test for lysyl oxidase-inhibitory effect (homovanillic acid/horseradish peroxidase fluorescence). In kind it is biochemical. To be noted: enzyme from bovine aortas, 15 minutes preincubation, pH 8.2; read-out: IC50 (inhibition of lysyl oxidase). The protocol: 1. Test for Lysyl Oxidase-inhibitory Effect:
The enzyme was isolated from bovine aortas in a modification of a method of Kagan et al. [Biochem. J. 177, 203-214 (1979)] by extraction with phosphate buffer containing urea, followed by precipitation and chromatography on DEAE-Sephadex.
The test solution (total volume 200 μl) is composed of 1.5 mM homovanillinic acid, 5 mM 1,5-diaminopentane, 1 unit of horseradish peroxidase and 1.5 M urea in 50 mM sodium borate buffer of pH 8.2. The enzyme was preincubated with the compound to be tested for 15 minutes; the reaction was started by adding diaminopentane and homovanillin/horseradish peroxidase. The fluorescence of the homovanillin dimer which formed was measured with excitation at 315 nm and emission at 425 nm. This test arrangement is a modification of the method of Trackman et al. [Anal. Biochem. 113, 336-341 (1981)].
The IC50 as a measure of the inhibition of lysyl oxidase is found by testing various concentrations of substance and using the concentration-effect plots.

For series [1], the system named is serum-induced hepatic fibrosis in rats. The experiment in a line: Model of serum-induced hepatic fibrosis, liver collagen content (4-hydroxyproline). In kind it is in vivo, rat. The settings on record: serum-treated female Sprague-Dawley rats, 3 mg/kg p.o. o.d.; vehicle 2.070, intact 0.577; P <0.01. The protocol:
c) Model of Serum-induced Hepatic Fibrosis: A septal fibrosis can be induced in rats also by repeated injection of heterologous serum. For this purpose, 0.5 ml of sterile-filtered porcine serum is administered i.p. to each animal twice a week [Bhunchet and Wake, Hepatology 16, 1452-73 (1992)]. The experiments were carried out with female Sprague-Dawley rats (200-220 g). After 6-8 weeks, the septal fibrosis is histologically manifest and can also be detected through an increase in the liver hydroxyproline content. b) Collagen Content: The total collagen content was estimated by means of the tissue 4-hydroxyproline concentration. The method of Prockop and Udenfried [D. J. Prockop and S. Udenfried, A specific method for the analysis of hydroxyproline in tissues and urine, Anal. Biochem. 1, 228-239 (1960)] in modified form was used: liver samples with a wet weight of 60-90 mg were dried and then hydrolyzed in 6 N hydrochloric acid at 100° C. for 17 hours. The hydrolyzate was dried by evaporation and reconstituted in 5 ml of deionized water. […] After incubation at 35° C. for 3 hours, the absorption was measured at 573 nm. […]

Series [2] deals with hepatic fibrosis following bile duct ligature in rats. The experiment in a line: Model of bile duct ligature, histological morphometry (picrosirius red). The series is classed as in vivo, rat. To be noted: 15 mg/kg p.o. b.i.d. The protocol: b) Model of Bile Duct Ligature:
The experiments were carried out with female Sprague-Dawley rats (200-220 g). In order to generate chronic fibrosis, the bile duct (common hepatic duct) was doubly ligated in a surgical procedure. Ethibloc® occlusion emulsion (Ethicon, Norderstedt, Germany), a mixture of prolamine and ethanol, was instilled retrogradely into the biliary system [J. Kountouras, B. Billing, P. Scheuer, Prolonged bile obstruction: A new experimental model for cirrhosis in the rat, Br. J. Exp. Pathol. 65, 305-311 (1984); G. Boigk, L. Stroedter, H. Herbst, J. Waldschmidt, E. O. Riecken, D. Schuppan, Silymarin retards collagen accumulation in early and advanced biliary fibrosis secondary to complete bile duct obliteration in rats, Hepatology 26, 643-649 (1997)]. […] The animals were sacrificed and investigated three weeks after the surgical procedure.
a) Histological Assessments/Morphometry:
Standardized transverse cylinders of liver tissue (approx. 10×2 mm) were cut out of the right anterior lobe of each rat liver. Frozen sections were stained with 0.1% picrosirius red solution to detect scar collagen associated with hepatic fibrosis. The contrast was increased by counterstaining with fast green. The extent of hepatic fibrosis was found as a percentage of the part stainable with picrosirius red in each section. […]

In series [3] the test system is hepatic fibrosis resulting from chronic administration of carbon tetrachloride in rats. As to the kind of experiment: Model of chronic carbon tetrachloride intoxication, liver collagen content (4-hydroxyproline). In kind it is in vivo, rat. To be noted: CCl4-treated female Sprague-Dawley rats, 30 mg/kg p.o. o.d., 6 weeks; vehicle 1.921, intact 0.504; P =0.059 vs. vehicle. From the text: a) Model of Chronic Carbon Tetrachloride Intoxication:
Chronic carbon tetrachloride (CCl4) treatment is a standard method for generating hepatic fibrosis of nonviral origin and subsequent cirrhosis. It is generally accepted as a model of hepatic fibrosis and cirrhosis in humans [E. McLean, A. McLean, P. Sutton, Instant Fibrosis: An improved method for producing cirrhosis of the liver in rats by simultaneous administration of carbon tetrachloride and phenobarbitone, Br. J. Exp. Pathol. 50, 502-506 (1969)].
Female Sprague-Dawley rats (200-220 g) were employed. In order to achieve maximum microsomal metabolization of the CCl4, the animals received isoniazid in the drinking water (1 g/l) for one week before starting the administration of carbon tetrachloride. CCl4 was administered orally each fifth day in a dose of 0.2 ml/100 g of bodyweight in a 1:1 mixture with mineral oil. […] Necropsy was performed 6 weeks after starting the treatment.
The total collagen content was estimated by means of the tissue 4-hydroxyproline concentration. […] After incubation at 35° C. for 3 hours, the absorption was measured at 573 nm. […]

Molecules are shown by their SMILES.

As a reminder, the IC50 is the concentration at which inhibition is half-maximal. As a reminder, the melting point is the temperature, or range, at which the solid turns liquid. `CN1CCN(c2cnn(-c3ccc(Cl)cc3)c(=O)c2Oc2ccc(-c3ccccc3)cc2)CC1.Cl` [Ex. 34] came in with a melting point of 162 °C. For the same compound, the IC50 at lysyl oxidase amounted to 9 nM. The “4-Hydroxyproline content: average in mg/g dry weight” value in series [1] was 1.293 mg/g dry weight. For the compound `CS(=O)(=O)Nc1ccc(-c2ccc(Oc3c(-n4ccnc4)cnn(-c4ccc(Cl)cc4)c3=O)cc2)cc1` [compound 83], the melting point turned out to be 180 °C. Take `CS(=O)(=O)N1CCN(c2cnn(-c3ccc(Cl)cc3)c(=O)c2Oc2ccc(-c3ccc(F)c(CN)c3)cc2)CC1` [Ex. 8, 4-{[3′-(Aminomethyl)-4′-fluoro-1,1′-biphenyl-4-yl]oxy}-2-(4-chlorophenyl)-5-[4-(methylsulfonyl)-1-piperazinyl]-3(2H)-pyridazinone]: the IC50 at lysyl oxidase turned out to be 7 nM. On to `O=c1c(Oc2ccc(-c3ccccc3)cc2)c(-n2ccnc2)cnn1-c1cccc(F)c1` [compound 73], for which the melting point is 148 °C. For `O=c1c(Oc2ccc(-c3ccc(F)cc3)cc2)c(N2CCC(CO)CC2)cnn1-c1ccc(Cl)cc1` [Ex. 25, 2-(4-Chlorophenyl)-4-[(4′-fluoro-1,1′-biphenyl-4-yl)oxy]-5-[4-(hydroxymethyl)-1-piperidinyl]-3(2H)-pyridazinone], the IC50 on lysyl oxidase turned out to be 5 nM.

Consider `Cc1ccc(-n2ncc(-n3ccnc3)c(Oc3ccc(-c4ccccc4)cc3)c2=O)cc1` [compound 77], for which the melting point was found to be 177 °C.

In the case of `O=c1c(Oc2ccc(-c3ccccc3)cc2)c(-n2ccnc2)cnn1-c1ccc(Cl)cc1` [Ex. 82], the IC50 at lysyl oxidase is 11 nM. Also, the “Proportionate area stainable with picrosirius red: average in %” value in series [2] (bile duct ligated female Sprague-Dawley rats, three weeks, vehicle 7.4, sham 0.21, P <0.05 vs. vehicle) came to 4.98%. Besides, the inhibition in fibrosis entry in series [2] (bile duct ligated rats, worked out from Table 2) is recorded as “approx. 34%”. Besides, the “4-Hydroxyproline content: average in mg/g dry weight” value in series [3] is given as 1.260 mg/g dry weight.

For the compound `O=c1c(Oc2ccc(-c3ccc(O)cc3)cc2)c(-n2ccnc2)cnn1-c1ccc(Cl)cc1` [Ex. 81], at lysyl oxidase, the IC50 is 7 nM. `O=c1c(Oc2ccc(-n3cccc3)cc2)c(-n2ccnc2)cnn1-c1ccc(Cl)cc1` [compound 78] returned a melting point of 188 °C. Consider `O=c1c(Oc2ccc(-c3ccccc3)cc2)c(N2CCNCC2)cnn1-c1ccc(Cl)cc1` [Ex. 12, 4-(1,1′-Biphenyl-4-yloxy)-2-(4-chlorophenyl)-5-(1-piperazinyl)-3(2H)-pyridazinone], for which the IC50 at lysyl oxidase was found to be 3 nM. As for `CCN1CCN(c2cnn(-c3ccc(C)cc3)c(=O)c2Oc2ccc(-c3ccc(O)cc3)cc2)CC1` [Ex. 5, 5-(4-Ethyl-1-piperazinyl)-4-[(4′-hydroxy-1,1′-biphenyl-4-yl)oxy]-2-(4-methylphenyl)-3(2H)-pyridazinone], on lysyl oxidase, the IC50 turned out to be 17 nM.

The compound `O=c1c(Oc2ccc(-c3ccccc3)cc2)c(-n2ccnc2)cnn1-c1ccc(F)cc1` [compound 74] registered a melting point of 119 °C. In the case of `Cc1ccc(-n2ncc(-n3ccnc3)c(Oc3ccc(-c4ccc(C#N)cc4)cc3)c2=O)cc1` [compound 76], the melting point is 220 °C. `CC(=O)NCc1cc(-c2ccc(Oc3c(N4CCNCC4)cnn(-c4ccc(Cl)cc4)c3=O)cc2)ccc1F` [Ex. 176]: on lysyl oxidase, the IC50 stood at 10 nM. As for `N#Cc1ccc(-c2ccc(Oc3c(-n4ccnc4)cnn(-c4ccc(Cl)cc4)c3=O)cc2)cc1` [compound 80], the melting point is 276 °C. For the compound `CCOC(=O)c1ccc(-n2ncc(-n3ccnc3)c(Oc3ccc(-c4ccccc4)cc3)c2=O)cc1` [compound 72], the melting point stood at 151 °C.

As for `N#CCCN` [β-Aminopropionitrile (BAPN), reference compound], at lysyl oxidase, the IC50 is 10000 nM.

`O=c1c(Oc2ccc(-c3ccc(F)cc3)cc2)c(-n2ccnc2)cnn1-c1ccc([N+](=O)[O-])cn1` [compound 71] showed a melting point of 186 °C. As for `CCOc1c(N2CCOCC2)cnn(C)c1=O` [4-ethoxy-2-methyl-5-morpholino-3(2H)-pyridazinone, reference compound], the IC50 at lysyl oxidase was more than 4000 nM.

Source of the values: patent US7320977B2, “Substituted 2-phenyl-3(2h)-pyridazinones” (Bayer Healthcare AG, priority 2002, dated 2008).
